pEC50, pIC50: −log10 of the molar value.
Biological target: T1, Solute carrier family 2, facilitated glucose transporter member 2 (Homo sapiens, UniProt P11168)
T1 sequence (P11168 whole entry): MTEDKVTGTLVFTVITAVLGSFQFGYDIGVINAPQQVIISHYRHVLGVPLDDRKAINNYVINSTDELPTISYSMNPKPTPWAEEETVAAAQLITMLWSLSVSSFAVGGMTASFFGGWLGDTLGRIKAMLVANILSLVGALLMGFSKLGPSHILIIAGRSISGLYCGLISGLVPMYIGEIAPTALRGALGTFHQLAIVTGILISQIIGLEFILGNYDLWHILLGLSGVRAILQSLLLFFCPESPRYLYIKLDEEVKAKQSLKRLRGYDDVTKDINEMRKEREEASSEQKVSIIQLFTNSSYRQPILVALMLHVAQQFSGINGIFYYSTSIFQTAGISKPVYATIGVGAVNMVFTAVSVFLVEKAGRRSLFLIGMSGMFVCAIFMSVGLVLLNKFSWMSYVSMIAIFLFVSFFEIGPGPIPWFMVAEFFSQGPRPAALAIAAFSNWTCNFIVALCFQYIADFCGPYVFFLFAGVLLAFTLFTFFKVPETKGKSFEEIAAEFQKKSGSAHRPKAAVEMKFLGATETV
Assay: Inhibition of the Glucose Transporter (GLUT2, SLC2A2) as assessed by a FRET based flow cytometry assay using a genetically-encoded biosensor for measuring free glucose (FLII12Pglu-700uDelta6) in HEK293 JumpIN TRex SLC2A2 WT-OE cells (PubChem AID: 1794829)
Type: functional, cell-based

| pEC50 | SMILES | pIC50 |
| --- | --- | --- |
| 3.28 | OC[C@H]1OC(O)[C@H](O)[C@@H](O)[C@@H]1O (stereo partly drawn) [DEXTROSE] |  |
|  | O=C(Oc1cccc(F)c1OC(=O)c1cccc(O)c1)c1cccc(O)c1 | < 5.00 |
|  | C=C1[C@@H](C)[C@H]2[C@H](Cc3ccccc3)NC(=O)[C@]23OC(=O)/C=C/[C@H](O)CCC[C@@H](C)C/C=C/[C@H]3[C@@H]1O [CYTOCHALASIN B] | < 5.00 |

From ChEMBL document CHEMBL5209578, “Flow cytometry transport assay for SLC2A2 using HEK293 JumpIN TRex SLC2A2 WT-OE cells” (2022)
